From PubChem BioAssay (NCI)
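Following 48 hours of exposure in 96-well plates, responses at five concentrations were used to interpolate endpoints linearly. TGI: concentration producing complete growth inhibition.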

Tests used:
Test in all cases: growth of human tumour cells (NCI), 48 h
[1] = system: OVCAR-5 ovarian
[2] = system: SK-MEL-5 melanoma
[3] = system: NCI/ADR-RES ovarian
[4] = system: NCI-H226 lung
[5] = system: A498 renal
[6] = system: MALME-3M melanoma
[7] = system: COLO 205 colon
[8] = system: HL-60(TB) leukemia
[9] = system: UO-31 renal
[10] = system: M14 melanoma
[11] = system: SNB-75 CNS
[12] = system: MDA-N
[13] = system: HCT-116 colon
[14] = system: HT29 colon
[15] = system: DU-145 prostate
[16] = system: KM12 colon
[17] = system: MOLT-4 leukemia
[18] = system: CAKI-1 renal
[19] = system: PC-3 prostate
[20] = system: 786-0 renal
[21] = system: SW-620 colon
[22] = system: SF-268 CNS
[23] = system: HCT-15 colon
[24] = system: MDA-MB-435
[25] = system: SNB-19 CNS
[26] = system: LOX IMVI melanoma
[27] = system: SF-539 CNS
[28] = system: UACC-257 melanoma
[29] = system: MDA-MB-231 breast
[30] = system: OVCAR-3 ovarian
[31] = system: NCI-H522 lung
[32] = system: HCC-2998 colon
[33] = system: SK-MEL-2 melanoma
[34] = system: HS 578T breast
[35] = system: SN12C renal
[36] = system: T-47D breast
[37] = system: A549 NSCLC
[38] = system: SK-MEL-28 melanoma
[39] = system: SF-295 CNS
[40] = system: U251 CNS
[41] = system: IGROV1 ovarian
[42] = system: EKVX NSCLC
[43] = system: MCF7 breast
[44] = system: HOP-62 NSCLC
[45] = system: NCI-H23 lung
[46] = system: TK-10 renal
[47] = system: NCI-H460 lung
[48] = system: RPMI-8226 leukemia
[49] = system: K-562 leukemia
[50] = system: RXF 393 renal
[51] = system: OVCAR-8 ovarian
[52] = system: SK-OV-3 ovarian
[53] = system: CCRF-CEM leukemia
[54] = system: HOP-92 NSCLC
[55] = system: OVCAR-4 ovarian
[56] = system: ACHN renal
[57] = system: SR leukemia

O=c1ccn(-c2ccccn2)c(=O)n1-c1ccccn1 was tested, and the TGI [1] was over 100 µM, the TGI [2] was over 100 µM and the TGI [3] was over 100 µM. The TGI [4] was over 100 µM, the TGI [5] was over 100 µM and the TGI [6] was over 100 µM. For the same compound, the TGI [7] was over 100 µM, the TGI [8] was over 100 µM and the TGI [9] was over 100 µM. For the same compound, the TGI [10] was over 100 µM, the TGI [11] was over 100 µM and the TGI [12] was over 100 µM. For the same compound, the TGI [13] was over 100 µM, the TGI [14] was over 100 µM and the TGI [15] was over 100 µM. The TGI [16] was over 100 µM, the TGI [17] was over 100 µM and the TGI [18] was over 100 µM. The TGI [19] was over 100 µM, the TGI [20] was over 100 µM and the TGI [21] was over 100 µM. The TGI [22] was over 100 µM, the TGI [23] was over 100 µM and the TGI [24] was over 100 µM. For the same compound, the TGI [25] was over 100 µM, the TGI [26] was over 100 µM and the TGI [27] was over 100 µM. It also gave a TGI [28] of over 100 µM, a TGI [29] of over 100 µM and a TGI [30] of over 100 µM. The TGI [31] was over 100 µM, the TGI [32] was over 100 µM and the TGI [33] was over 100 µM. For the same compound, the TGI [34] was over 100 µM, the TGI [35] was over 100 µM and the TGI [36] was over 100 µM. For the same compound, the TGI [37] was over 100 µM, the TGI [38] was over 100 µM and the TGI [39] was over 100 µM. The TGI [40] was over 100 µM, the TGI [41] was over 100 µM and the TGI [42] was over 100 µM. For the same compound, the TGI [43] was over 100 µM, the TGI [44] was over 100 µM and the TGI [45] was over 100 µM. It also gave a TGI [46] of over 100 µM, a TGI [47] of over 100 µM and a TGI [48] of over 100 µM. For the same compound, the TGI [49] was over 100 µM, the TGI [50] was over 100 µM and the TGI [51] was over 100 µM. The TGI [52] was over 100 µM, the TGI [53] was over 100 µM and the TGI [54] was over 100 µM. For the same compound, the TGI [55] was over 100 µM and the TGI [56] was over 100 µM.

Work on CN(C)c1ccc(/C=c2/c3ccccc3n3c2cc(-c2ccccc2)[n+]3C)cc1 yielded a TGI [1] of 2.19 µM, a TGI [2] of 0.38 µM and a TGI [3] of over 100 µM. The TGI [4] was 1.07 µM, the TGI [5] was 4.38 µM and the TGI [8] was 0.123 µM. The TGI [9] was 2.35 µM, the TGI [10] was 1.44 µM and the TGI [12] was 1.22 µM. It also gave a TGI [13] of 1.32 µM, a TGI [14] of 0.908 µM and a TGI [15] of 1.92 µM. It also gave a TGI [16] of 0.694 µM, a TGI [18] of 7.65 µM and a TGI [19] of 1.04 µM. For the same compound, the TGI [20] was 1.34 µM, the TGI [22] was 1.08 µM and the TGI [23] was 3.06 µM. For the same compound, the TGI [24] was 1.12 µM, the TGI [25] was 1.28 µM and the TGI [28] was 1.88 µM. For the same compound, the TGI [57] was 0.658 µM, the TGI [32] was over 100 µM and the TGI [33] was 0.573 µM. For the same compound, the TGI [37] was 2.04 µM, the TGI [38] was 1.87 µM and the TGI [40] was 1.15 µM. It also gave a TGI [41] of 0.819 µM, a TGI [44] of 1.12 µM and a TGI [46] of 4.53 µM. It also gave a TGI [48] of 0.488 µM, a TGI [49] of over 100 µM and a TGI [51] of 0.567 µM. The TGI [52] was 2 µM, the TGI [54] was 1.01 µM and the TGI [55] was 2.1 µM. It also gave a TGI [56] of 2.33 µM.
